In patent publication US11840686B2, “Modulation of prekallikrein (PKK) expression” (Ionis Pharmaceuticals, Inc., priority 2013, dated 2023):
e = 2'-O-(2-methoxyethyl) (MOE); d = 2'-deoxy (DNA)

Tests used:
PKK protein = PKK protein in cynomolgus monkey plasma by ELISA (Example 8); type: in vivo; conditions: 40 mg/kg sc
Experimental: Approximately 0.9 mL of blood was collected each time from all available animals at pre-dose, day 17, day 31, day 45, day 59, and day 73, and placed in tubes containing 3.2% sodium citrate. The tubes were centrifuged (3000 rpm for 10 min at room temperature) to obtain plasma. PKK protein levels were measured in the plasma by ELISA. The results are presented in Table 52, expressed as percentage inhibition compared to the PBS control levels.

[1] = cynomolgus monkey, in vivo, sc, 40 mg/kg
[2] = cynomolgus monkey, in vivo, sc, 40 mg/kg; remark: listed apart in the source
Experimental: (§5) Prior to the study, the monkeys were kept in quarantine for a 30-day period, during which the animals were observed daily for general health. The monkeys were 2-4 years old and weighed between 2 and 4 kg. Ten groups of four randomly assigned male cynomolgus monkeys each were injected subcutaneously with ISIS oligonucleotide or PBS. PBS solution or ISIS oligonucleotides at a dose of 40 mg/kg were administered initially with a loading regimen consisting of four doses on the first week of the study (days 1, 3, 5, and 7), followed by a maintenance regimen consisting of once weekly administration starting on Day 14 (weeks 2 to 13). Subcutaneous injections were performed in clock-wise rotations at 4 sites on the back; one site per dose. The injection sites were delineated by tattoo, while sedated using ketamine, and were separated by a minimum of 3 cm.
To evaluate any effect of ISIS oligonucleotides in cynomolgus monkeys on hematologic parameters, blood samples of approximately 1.2 mL of blood was collected pre-dose and on day 87 or day 88 from each of the available study animals in tubes containing K2-EDTA. Samples were analyzed for red blood cell (RBC) count, white blood cells (WBC) count, platelet count, hemoglobin content and hematocrit, using an ADVIA2120i hematology analyzer (SIEMENS, USA).

[3] = cynomolgus monkey, in vivo, sc, 40 mg/kg; remark: listed apart in the source
Experimental: as §5
To evaluate the effect of ISIS oligonucleotides on kidney function, the monkeys were fasted overnight. Approximately, 1.5 mL of blood samples were collected from all the study groups. Blood was collected in tubes without anticoagulant for serum separation. The tubes were kept at room temperature for a minimum of 90 min and then centrifuged at 3,000 rpm for 10 min. Levels of BUN and creatinine were measured using a Toshiba 120FR NEO chemistry analyzer (Toshiba Co., Japan).

[4] = cynomolgus monkey, in vivo, sc, 40 mg/kg; remark: listed apart in the source
[5] = cynomolgus monkey, in vivo, sc, 40 mg/kg; remark: listed apart in the source
[6] = Tolerability / clinical observation of cynomolgus monkeys (Example 8); type: in vivo, cynomolgus monkey; conditions: cynomolgus monkeys, 40 mg/kg s.c.
Experimental: Cynomolgus monkeys were treated with ISIS antisense oligonucleotides selected from studies described above. Antisense oligonucleotide efficacy and tolerability were evaluated. The human antisense oligonucleotides tested are cross-reactive with the rhesus genomic sequence (GENBANK Accession No. NW_001118167.1 truncated from nucleotides 2358000 to 2391000 and designated herein as SEQ ID NO: 18).
During the study period, the monkeys were observed a minimum of once daily for signs of illness or distress. Any animal experiencing more than momentary or slight pain or distress due to the treatment, injury or illness was promptly reported to the responsible veterinarian and the Study Director. Any animal in poor health or in a possible moribund condition was identified for further monitoring and possible euthanasia. […] The protocols described in the Example were approved by the Institutional Animal Care and Use Committee (IACUC).

C1-INH mRNA = C1-INH mRNA in liver of mice treated with ISIS 461756 (Example 18); type: in vivo, mouse
Experimental: (§1) Vascular permeability induced by ISIS 461756, an antisense oligonucleotide which targets murine C1 inhibitor mRNA, increases vascular permeability in mice and replicates the pathology of hereditary angioedema. The effect of ISIS 482584 on this model was evaluated.
(§2) One group of 8 mice was treated with 40 mg/kg ISIS 482584 administered subcutaneously twice a week for 3 weeks (weekly dose of 80 mg/kg). A second group of 8 mice was treated with 40 mg/kg of the control oligonucleotide, ISIS 141923, administered subcutaneously twice a week for 3 weeks (weekly dose of 80 mg/kg). A third group of 8 mice was treated with PBS administered subcutaneously twice a week for 3 weeks. On day 14, all the groups were treated with 12.5 mg/kg ISIS 461756 administered subcutaneously twice a week for 3 weeks (weekly dose of 25 mg/kg). A control group of mice was treated with PBS administered subcutaneously twice a week for 3 weeks but was not administered ISIS 461756.
(§3) At the end of the treatment period, all the groups were injected with 30 mg/kg of Evans Blue solution into the tail vein. The mice were sacrificed 30 min after the Evans Blue solution administration and colons, feet, ears, and intestines were harvested. The liver was also harvested for RNA analysis.
(§4) RNA was isolated from the liver for RT-PCR analysis of C1-INH and PKK mRNAs. The primer probe set for C1-INH is RTS3218 (forward sequence […], designated herein as SEQ ID NO: 2234; reverse sequence […], designated herein as SEQ ID NO: 2235; probe sequence […], designated herein as SEQ ID NO: 2236). The primer probe set for PKK is RTS3287 (forward sequence […], designated herein as SEQ ID NO: 2237; reverse sequence […], designated herein as SEQ ID NO: 2238; probe sequence […], designated herein as SEQ ID NO: 2239). The results are presented in Table 79 as percent inhibition compared to the PBS control not treated with ISIS 461756.

PKK mRNA = PKK mRNA in liver of mice treated with ISIS 461756 (Example 18); type: in vivo, mouse; conditions: liver; all groups ISIS 461756 25 mg/kg/wk; pretreatment PBS or oligonucleotide 80 mg/kg/wk sc 3 weeks
Experimental: as §1, §2, §3, §4

[7] = tested on: vascular permeability induced by ISIS 461756; assay: C1-INH antisense oligonucleotide-induced vascular permeability, Evans Blue OD600 (Example 18); type: in vivo, mouse; conditions: Evans Blue OD600; all groups ISIS 461756 25 mg/kg/wk; pretreatment PBS or oligonucleotide 80 mg/kg/wk
Experimental: as §1, §2, §3
The harvested tissues from the feet, colon, and intestines were placed in formamide solution overnight to leach out the Evans Blue dye. The formamide solution containing feet tissue was heated to 55° C. and left overnight. The color intensity of the dye-infused formamide solution was then measured at OD600 nm. The data is presented in Table 80 as percent increase or reduction compared to the PBS control not treated with ISIS 461756.

Row | Substance | PKK protein level reduction (%) in plasma relative to control levels (PKK protein; Day 17) | PKK protein level reduction (%) in plasma relative to control levels (PKK protein; Day 31) | PKK protein level reduction (%) in plasma relative to control levels (PKK protein; Day 45) | PKK protein level reduction (%) in plasma relative to control levels (PKK protein; Day 59) | PKK protein level reduction (%) in plasma relative to control levels (PKK protein; Day 73) | ALT [1] | AST [1] | Albumin [1] | HCT [2] | Hemoglobin [2] | Platelets [2] | RBC [2] | WBC [2] | Plasma BUN [3] | Plasma Creatinine [3] | Urine protein/creatinine ratio [4] | C3 (% of baseline) [5] | CRP [5] | further results
1 | ISIS 546251: antisense oligonucleotide targeting nucleobases 27427-27466 of SEQ ID NO: 10; sequence in a table not shown (antisense GGCAAACATTCACTCCTTTA; 5-10-5 MOE gapmer, further chemistry not given here) | 71% | 75% | 75% | 81% | 77% | 58 IU/L | 51 IU/L | 3.7 g/dL | 43% | 12.9 g/dL | 419000 µL⁻¹ | 5.7e+06 µL⁻¹ | 8000 µL⁻¹ | 25.4 mg/dL | 1.1 mg/dL | 0.12 | 62 % of baseline | 0.7 mg/dL | 
2 | ISIS 547457: antisense oligonucleotide targeting nucleobases 30570-30610 of SEQ ID NO: 10; sequence in a table not shown (AAGGCGATATCATGATTCCC; 5-10-5 MOE gapmer, further chemistry not given here) | 68% | 75% | 79% | 76% | 80% | 52 IU/L | 54 IU/L | 4.0 g/dL | 45% | 13.8 g/dL | 367000 µL⁻¹ | 6.4e+06 µL⁻¹ | 10000 µL⁻¹ | 24.3 mg/dL | 1.0 mg/dL | 0.03 | 53 % of baseline | 0.3 mg/dL | 
3 | ISIS 547445: gapmer targeting human PKK, selected from earlier screens; sequence in a table not shown (antisense GCCACTATAGATGCGCCAAA; gapmer, wing chemistry not given here) |  |  |  |  |  |  |  |  |  |  |  |  |  |  |  |  |  |  | clinical observation, euthanasia [6]: two monkeys treated with ISIS 547445 were euthanized
4 | ISIS 547455: antisense oligonucleotide targeting nucleobases 30570-30610 of SEQ ID NO: 10; sequence in a table not shown (ATATCATGATTCCCTTCTGA; 5-10-5 MOE gapmer, further chemistry not given here) | 26% | 33% | 43% | 58% | 58% | 61 IU/L | 56 IU/L | 3.8 g/dL | 34% | 10.2 g/dL | 448000 µL⁻¹ | 4.5e+06 µL⁻¹ | 13000 µL⁻¹ | 29.4 mg/dL | 0.9 mg/dL | 0.70 | 64 % of baseline | 1.9 mg/dL | 
5 | ISIS 461756: 5-10-5 MOE gapmer which targets murine C1 inhibitor mRNA, AAAGTGGTTGATACCCTGGG; SEQ ID NO: 2245 (sugars from the 5' end e5 d10 e5, backbone and methylation of C not given here) |  |  |  |  |  |  |  |  |  |  |  |  |  |  |  |  |  |  | Percent inhibition of C1-INH mRNA expression compared to the untreated PBS control (C1-INH mRNA; liver, all groups ISIS 461756 25 mg/kg/wk, pretreatment PBS or oligonucleotide 80 mg/kg/wk sc 3 weeks): 76%; C1-INH mRNA expression (C1-INH mRNA; mouse liver, 12.5 mg/kg ISIS 461756 s.c. twice a week): significantly reduced C1-INH mRNA expression; Percent inhibition of PKK mRNA expression compared to the untreated PBS control (PKK mRNA): 0%; Percent change in vascular permeability compared to the untreated PBS control, Colon [7]: 13%; Percent change in vascular permeability compared to the untreated PBS control, Feet [7]: 70%; Percent change in vascular permeability compared to the untreated PBS control, Intestines [7]: 27%
6 | ISIS 546232: antisense oligonucleotide targeting human PKK; sequence in a table not shown (antisense AGGAACTTGGTGTGCCACTT; 5-10-5 MOE gapmer, further chemistry not given here) | 53% | 58% | 72% | 75% | 70% | 140 IU/L | 63 IU/L | 4.1 g/dL | 42% | 12.9 g/dL | 391000 µL⁻¹ | 5.4e+06 µL⁻¹ | 11000 µL⁻¹ | 22.7 mg/dL | 1.0 mg/dL | 0.03 | 50 % of baseline | 0.5 mg/dL | 
